Reference: US20110200626A1, “IQGAP3 EPITOPE PEPTIDES AND VACCINES CONTAINING THE SAME” (Oncotherapy Science, Inc., priority 2008, published 2011)
Ends that are not written are not given here.

Key:
peptide-pulsed T2 cells [1] = test: IFN-gamma ELISPOT assay on CTLs induced with HLA-A*0201 restricted peptides; type: cell-based, human; conditions: against peptide-pulsed target cells compared with control without peptide, listed as IQGAP3-A02-10-1424
peptide-pulsed T2 cells [2] = test: IFN-gamma ELISA assay on CTL lines (HLA-A*0201); type: cell-based, human; conditions: target cells pulsed with corresponding peptide vs without peptide

For “SLTAhSLLPL (SLTAHSLLPL; not fully specified (residue 5); printed as SLTAhSLLPL) [SEQ ID NO: 141]”, the “IFN-gamma production of peptide-induced CTLs (ELISPOT)” value (peptide-pulsed T2 cells [1]) was “potent IFN-gamma production ability” and the “IFN-gamma production of established CTL lines (ELISA)” value (peptide-pulsed T2 cells [2]) was “potent IFN-gamma production”.
